Assays:
[1] = target: T1, human Cav3.2 T-type Ca2+ channel (Homo sapiens, UniProt O95180); assay: Inhibitory effect for intracellular calcium response via Cav3.2 T-type Ca2+ channels (FLIPR Calcium 3 Assay Kit); type: cell-based
T1 construct: expressed in transfected cells; host or cells: KJMGER8 cells (Namalwa cell-derived cell line)

[2] = tested on: morphine-induced pruritus mice; assay: Inhibitory effect for pruritus in morphine-induced pruritus mice; type: in vivo; settings: oral dose of 10 mg/kg or less, given 30 minutes or 1 hour before intrathecal morphine; scratching counted for 30 minutes; male ddY mice
Description: Inhibitory Effect for Pruritus in Morphine-Induced Pruritus Mice
Morphine (1 nmol/5 μL, dissolved in physiological saline) or physiological saline was intrathecally administered between the fifth and sixth lumbar vertebrae of male ddY mice using a microsyringe fitted with a 30-gauge injection needle. Mice to which only morphine was administered were referred to as a control group, and mice to which only physiological saline was administered were referred to as a physiological saline-administered group.
The number of scratching behavior with the hind legs which began to be observed immediately after the morphine administration was measured for 30 minutes. Because mice show continuous scratching actions in each scratching behavior, a series of such actions was counted as a single scratching behavior.
Each test compound was administered 30 minutes or 1 hour before the morphine administration. The test compound was suspended in a 0.5% methylcellulose solution and was prepared plural administration solutions of different concentrations, and each of them was orally administered in a volume of 10 mL/kg.

T1 sequence (O95180 whole entry): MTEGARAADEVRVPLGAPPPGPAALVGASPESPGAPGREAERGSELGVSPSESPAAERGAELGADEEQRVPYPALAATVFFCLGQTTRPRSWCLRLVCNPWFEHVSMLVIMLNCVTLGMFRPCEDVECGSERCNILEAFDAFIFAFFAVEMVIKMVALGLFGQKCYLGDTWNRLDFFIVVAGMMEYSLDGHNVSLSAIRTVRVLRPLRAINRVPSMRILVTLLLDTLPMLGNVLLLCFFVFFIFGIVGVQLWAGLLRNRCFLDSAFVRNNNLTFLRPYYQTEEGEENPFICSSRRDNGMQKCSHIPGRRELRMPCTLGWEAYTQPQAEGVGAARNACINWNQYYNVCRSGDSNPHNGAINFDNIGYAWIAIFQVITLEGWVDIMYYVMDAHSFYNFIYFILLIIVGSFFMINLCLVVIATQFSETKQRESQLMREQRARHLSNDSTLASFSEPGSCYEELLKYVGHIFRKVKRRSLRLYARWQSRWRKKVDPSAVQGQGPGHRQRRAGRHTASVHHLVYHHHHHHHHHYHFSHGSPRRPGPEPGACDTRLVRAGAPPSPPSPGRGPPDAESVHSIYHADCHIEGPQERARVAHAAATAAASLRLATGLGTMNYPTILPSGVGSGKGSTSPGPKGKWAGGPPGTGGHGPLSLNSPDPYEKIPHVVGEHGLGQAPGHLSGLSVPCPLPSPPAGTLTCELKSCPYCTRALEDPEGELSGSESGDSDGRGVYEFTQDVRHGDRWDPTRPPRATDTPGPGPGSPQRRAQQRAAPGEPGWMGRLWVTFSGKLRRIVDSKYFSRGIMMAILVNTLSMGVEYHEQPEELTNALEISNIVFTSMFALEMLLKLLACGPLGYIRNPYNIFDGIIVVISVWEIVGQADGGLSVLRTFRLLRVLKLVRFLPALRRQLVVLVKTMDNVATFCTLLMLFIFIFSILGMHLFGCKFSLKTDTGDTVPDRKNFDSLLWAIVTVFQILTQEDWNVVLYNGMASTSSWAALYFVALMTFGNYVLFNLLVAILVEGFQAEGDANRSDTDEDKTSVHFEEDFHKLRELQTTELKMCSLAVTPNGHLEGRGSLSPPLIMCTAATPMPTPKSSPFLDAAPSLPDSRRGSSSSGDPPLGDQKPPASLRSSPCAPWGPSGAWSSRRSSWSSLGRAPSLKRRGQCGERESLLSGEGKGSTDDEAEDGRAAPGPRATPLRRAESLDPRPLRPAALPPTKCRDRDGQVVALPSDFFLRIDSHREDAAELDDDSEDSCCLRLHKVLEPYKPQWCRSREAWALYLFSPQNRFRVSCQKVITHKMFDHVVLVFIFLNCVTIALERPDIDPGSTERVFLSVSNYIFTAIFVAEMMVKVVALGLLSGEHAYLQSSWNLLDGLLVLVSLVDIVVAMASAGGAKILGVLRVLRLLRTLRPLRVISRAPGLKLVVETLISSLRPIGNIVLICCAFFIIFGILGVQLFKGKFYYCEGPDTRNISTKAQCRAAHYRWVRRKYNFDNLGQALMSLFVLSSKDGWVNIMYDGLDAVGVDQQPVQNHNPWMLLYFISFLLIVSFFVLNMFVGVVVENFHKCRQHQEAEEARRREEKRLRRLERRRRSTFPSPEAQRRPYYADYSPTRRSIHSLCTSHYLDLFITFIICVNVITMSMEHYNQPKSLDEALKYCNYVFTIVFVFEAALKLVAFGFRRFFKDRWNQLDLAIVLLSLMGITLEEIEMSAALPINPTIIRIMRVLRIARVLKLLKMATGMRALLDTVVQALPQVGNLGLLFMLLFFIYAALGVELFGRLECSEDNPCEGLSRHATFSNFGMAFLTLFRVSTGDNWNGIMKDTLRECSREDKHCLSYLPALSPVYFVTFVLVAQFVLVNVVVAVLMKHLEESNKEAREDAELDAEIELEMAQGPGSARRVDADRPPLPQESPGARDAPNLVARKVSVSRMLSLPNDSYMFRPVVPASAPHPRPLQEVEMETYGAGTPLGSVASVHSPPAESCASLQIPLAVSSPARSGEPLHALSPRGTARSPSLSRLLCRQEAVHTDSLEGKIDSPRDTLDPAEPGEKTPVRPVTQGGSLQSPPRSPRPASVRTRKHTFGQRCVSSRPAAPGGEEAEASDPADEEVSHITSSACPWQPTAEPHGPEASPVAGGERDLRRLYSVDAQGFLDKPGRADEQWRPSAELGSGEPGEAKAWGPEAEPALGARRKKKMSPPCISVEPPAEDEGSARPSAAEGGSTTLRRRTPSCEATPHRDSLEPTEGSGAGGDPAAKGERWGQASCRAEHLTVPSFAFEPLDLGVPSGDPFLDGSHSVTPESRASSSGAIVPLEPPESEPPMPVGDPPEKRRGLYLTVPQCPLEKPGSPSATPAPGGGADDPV

[2H]C([2H])([2H])OC(C)(C)CNC(=O)c1cc(C#N)n2c(CC3CCC(F)(F)CC3)c(C(C)(F)F)nc2c1 [Compound 194, 5-Cyano-3-[(4,4-difluorocyclohexyl)methyl]-2-(1,1-difluoroethyl)-N-(2-methoxy-d3-2-methylpropyl)imidazo[1,2-a]pyridine-7-carboxamide]
IC50 [1]: ≤ 100 nM | inhibition of the increase of the scratching behavior in morphine-induced pruritus mice [2]: inhibited the increase of the scratching behavior

CC(C)(CNC(=O)c1cc(Cl)n2c(CC3CCC(F)(F)CC3)c(C(F)(F)F)nc2c1)S(C)(=O)=O [Compound 197, 5-Chloro-3-[(4,4-difluorocyclohexyl)methyl]-N-[2-methyl-2-(methylsulfonyl)propyl]-2-(trifluoromethyl)imidazo[1,2-a]pyridine-7-carboxamide]
IC50 [1]: ≤ 100 nM | inhibition of the increase of the scratching behavior in morphine-induced pruritus mice [2]: inhibited the increase of the scratching behavior

Cc1cc(C(=O)NC2CCOCC2)cc2nc(C(F)(F)F)c(Cc3ccc(Cl)cc3)n12 [Compound 208, 3-(4-Chlorobenzyl)-5-methyl-N-(tetrahydro-2H-pyran-4-yl)-2-(trifluoromethyl)imidazo[1,2-a]pyridine-7-carboxamide]
IC50 [1]: ≤ 100 nM | inhibition of the increase of the scratching behavior in morphine-induced pruritus mice [2]: inhibited the increase of the scratching behavior
